Patent US20240335429A1, “MOLECULAR GLUE AND SALL4 DEGRADER” (National University of Singapore, priority 2021, published 2024)

How the values were obtained:
SNU-398 xenografts = assay: HCC mouse xenograft, anti-tumor efficacy; type: in vivo; conditions: for tumor shrinkage: 15 days
Procedure: Animals were maintained, and all animal work were performed following the protocols approved by the Institutional Animal Care and Use Committee. The SNU-398 cell line was cultured as described above in ‘Cell Culture’. To establish the SNU-398 xenografts, NOD.Cg−Prkdc^sc^i^dIl2rg^tm^1^Wjl/Sz (NSG) female mice (6-8 weeks) were anesthetized using 2% isoflurane USP, and 0.5×10^6 SNU-398 cells in 200 μL of 1:1 RPMI:Matrigel were subcutaneously injected to the mouse flanks. When tumors were palpable, mice were randomized to receive either QE treatment or vehicle containing 5% DMSO, 12.5% Ethanol, and 12.5% Cremophor EL in 70% 1× PBS. Freshly prepared vehicle or QE-18-WG07 was administered by intraperitoneal (IP) injection, once daily (qd) at 10 mg/kg in the pilot study and 5, 15, and 45 mg/kg for dose-expansion studies. Before each drug injection, mouse weight and tumor volume were monitored. Mice were euthanized once tumors reached more than 1.5 cm in diameter. The tumors were harvested, imaged and snap-frozen for storage at −80° C. until later use.

SALL4B = molecular target: T1, SALL4B (Homo sapiens, UniProt Q9UJQ4); assay: Immunoblot of endogenous SALL4B in SNU-398 HCC cells; type: cell-based
T1 construct: endogenous in cells; host or cells: SNU-398 HCC cells
T1 sequence (Q9UJQ4 1-616 isoform Q9UJQ4-2): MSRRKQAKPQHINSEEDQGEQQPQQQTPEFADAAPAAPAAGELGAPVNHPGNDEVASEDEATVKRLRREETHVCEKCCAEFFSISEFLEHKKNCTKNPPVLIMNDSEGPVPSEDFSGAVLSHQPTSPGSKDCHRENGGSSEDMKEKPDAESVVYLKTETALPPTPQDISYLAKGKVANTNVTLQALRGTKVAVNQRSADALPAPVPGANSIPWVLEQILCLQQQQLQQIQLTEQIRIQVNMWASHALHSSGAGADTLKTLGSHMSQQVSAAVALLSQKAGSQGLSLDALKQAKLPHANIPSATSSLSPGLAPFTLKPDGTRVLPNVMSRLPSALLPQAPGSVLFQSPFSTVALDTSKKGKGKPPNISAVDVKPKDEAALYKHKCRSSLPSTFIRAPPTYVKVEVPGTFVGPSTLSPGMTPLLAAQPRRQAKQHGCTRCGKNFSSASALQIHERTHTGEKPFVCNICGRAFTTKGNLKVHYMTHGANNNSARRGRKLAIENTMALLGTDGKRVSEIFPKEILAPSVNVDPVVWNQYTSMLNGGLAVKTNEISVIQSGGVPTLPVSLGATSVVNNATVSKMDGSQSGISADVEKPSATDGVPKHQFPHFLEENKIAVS
Procedure: (§1) RIPA buffer containing freshly added protease inhibitors (2 mM PMSF) and protease inhibitor cocktail was used for cell lysis. The lysed cells were incubated for 10 min on ice and subsequently centrifuged at 4° C. for 10 min at 14,000 rpm. The protein concentrations of cell lysates were assessed using Bradford Assay as per manufacturer's instructions. The samples were denatured using 4× Sample buffer at 95° C. for 5 min. The samples were size resolved using polyacrylamide gel (8%) and Mini-PROTEAN Tetra Cell module. The size-resolved proteins were transferred onto PVDF via electroblotting using Mini Trans-Blot® module. The membrane was blocked using 5% BSA in TBST. The membrane was incubated with appropriate primary antibody (overnight) and secondary antibody (1 h). Immobilon Crescendo Western HRP substrate was used for signal development and images were acquired using darkroom development techniques.
A head-to-head comparison between the newly discovered SALL4 degrader QE-18-WG07 and IMiDs (Pomalidomide and Thalidomide) was performed. To assess the differential isoform degradation and biological consequences induced by QE-18-WG07 and IMiDs in cancer cells, the inventors employed the newly developed SALL4 isoform-specific cellular luciferase reporter system in Example 1 (FIG. 1A), and human HCC cell lines (SNU-398 and SNU-182), and NSCLC cell line H661 that have a high SALL4 level endogenously. The inventors treated H1299 cells overexpressing SALL4B_Nluc and the HCC (SNU-398, SNU-182) and NSCLC cells (H661) with increasing concentrations of QE-18-WG07 and IMiDs, and assayed the SALL4B_Nluc, as well as the endogenous SALL4A and B levels by immunoblots described in Example 4.
26S proteasome complex and neddylation was inhibited by cotreating MG132 at 1 and 3 μM and MLN4924 at 10 and 15 μM for 18 h, 20 h, 24 h or 48 h with desired concentrations of QE-18-WG07 in SNU-398, H661 and SNU-182 cells. After 18 h or 24 h of treatment, cells were then lysed and subjected to further protein extraction and immunoblotting by following the protocol in Example 4. For caspase glo assay, 20 h of cotreatment was performed by following the protocol in Example 5. For viability assay, 48 h of cotreatment was carried out by following the protocol in Example 5.
For lentiviral transduction, SNU-398 cells were spun with lentiviral particles containing the aforementioned vectors in RPMI (plus 10% FBS, 8 μg/mL polybrene) at 800 g for 60 minutes at room temperature. 96 h post-infection, cells were seeded in 6-well or 384-well plates and incubated overnight at 37° C., 5% CO2. Cells were then treated with DMSO or QE-18-WG07 at desired concentrations (0.5% final DMSO) for 18 h and 24 h. Immunoblot analysis was subsequently performed with the indicated antibodies by following the protocol in Example 4. […]

cleaved PARP = assay: Immunoblot of cleaved PARP (apoptotic marker) in SNU-398 cells; type: cell-based, human; conditions: SNU-398 HCC cells, 24 h
Procedure: as §1

IKZF3 = molecular target: T2, IKZF3 (Homo sapiens, UniProt Q9UKT9); assay: Immunoblot of IKZF3 in SNU-398 HCC cells; type: cell-based; conditions: SNU-398 cells
T2 construct: with immunoblots in SNU-398 HCC cells; endogenous in cells; host or cells: SNU-398 HCC cells
T2 sequence (Q9UKT9 whole entry): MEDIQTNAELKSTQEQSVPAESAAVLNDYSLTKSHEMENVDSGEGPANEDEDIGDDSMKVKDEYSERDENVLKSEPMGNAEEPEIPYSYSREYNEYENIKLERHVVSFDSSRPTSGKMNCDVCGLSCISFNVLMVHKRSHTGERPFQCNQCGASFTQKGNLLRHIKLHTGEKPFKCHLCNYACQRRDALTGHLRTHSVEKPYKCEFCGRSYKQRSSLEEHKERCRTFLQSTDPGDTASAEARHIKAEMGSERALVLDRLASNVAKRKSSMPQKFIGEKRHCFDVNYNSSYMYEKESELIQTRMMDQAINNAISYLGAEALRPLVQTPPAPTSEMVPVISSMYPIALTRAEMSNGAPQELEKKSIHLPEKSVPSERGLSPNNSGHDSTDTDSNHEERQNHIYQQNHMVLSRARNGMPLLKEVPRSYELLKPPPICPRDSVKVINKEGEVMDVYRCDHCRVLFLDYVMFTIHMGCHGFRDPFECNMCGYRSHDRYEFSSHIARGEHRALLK
Procedure: as §1

In the case of `COc1ccccc1NC(=O)Nc1ccc([N+](=O)[O-])cc1O` [QE-18-WG07], the tumor shrinkage (SNU-398 xenografts; 5 mg/kg IP daily) is reported as 40%, the “reduction of tumor sizes vs vehicle control” value (SNU-398 xenografts; 10 mg/kg IP daily, 10 days) is reported as 64% and the tumor shrinkage (SNU-398 xenografts; 15 mg/kg IP daily) is reported as 60%. For the same compound, the tumor shrinkage (SNU-398 xenografts; 45 mg/kg IP daily) was 70%, the “degradation of endogenous SALL4B after CRBN knockdown by shRNA” value (SALL4B; CRBN-KD SNU-398 cells, 18 h) was “prevented” and the “SALL4B degradation under MG132 or MLN4924 cotreatment” value (SALL4B; SNU-398, SNU-182 and H661 cells) was “chemically rescued”. For the same compound, the Dmax (SALL4B; SNU-398 HCC cells, 24 h of treatment, immunoblot quantification) was 87%, the DC50 (SALL4B; SNU-398 cells, 24 h, immunoblot quantification) was ~640 nM and the “cleavage of PARP (apoptosis induction)” value (cleaved PARP) was “prominent cleavage of PARP”. The “degradation of IKZF3” value (IKZF3) was “did not degrade”.
